{"source": "patent US10451536B2", "about": "“Method and apparatus for multi-parameter data analysis” (GE HEALTHCARE UK LIMITED, priority 2009, dated 2019)", "test_system": "CHO-K1 cells", "test": "High-content screening of nuclear morphology in CHO-K1 cells treated with Mitomycin C, with KS distance analysis", "format": "cell-based", "experimental": "CHO-K1 cells were seeded into a GE Healthcare 96 well MatriPlate at 6000 cells/well in Ham's F12 media supplemented with 5% EBS and incubated under standard tissue culture conditions for 24 hours. Mitomycin C (MMC) solutions were added in culture media to provide final concentrations in the assay of […] and cells incubated for a further 48 hours. Media was removed from wells and cells washed once with […] phosphate buffered saline (PBS), followed by fixation in ethanol for 30 minutes at room temperature. Nuclei were stained with […] HOECHST™ 33342 (Sigma) at room temperature for 15 minutes and cells washed with […] PBS.\nCells were imaged by a GE Healthcare INCELL ANALYZER 1000™ using v3.5 acquisition software (available from GE Healthcare) with a 20× objective. Images were acquired using on-line cell counting to acquire a minimum of 1000 cells/well. Images were analysed for nuclear area, length, perimeter and weighted moment of inertia (WMOI) using GE INCELL INVESTIGATOR™ software (available from GE Healthcare).\nFour nuclear morphology parameters were abstracted from images using automated image analysis and data from replicate samples exposed to the same concentrations of MMC combined to yield population distribution histograms for each of the four parameters as shown in FIGS. 7 to 10. In each of FIGS. 7 to 10 the data in panel 1 is from control cells, and the data in panels 2-12 from MMC treated cells across the range of 0.01 μM-10 μM MMC.\nKS distance analysis of the data using intra-sample measurements (i.e. calculation of the KS distance between cell data in the absence of MMC and cell data at a given concentration of MMC across the range 0.01 μM-10 μM) was performed and the resulting data shown in FIG. 11.\nInter-sample KS distances were calculated for all six possible parameter pairings (Area-Length; Area-WMOI; Length-WMOI; Area-Perimeter; Length-Perimeter; Perimeter-WMOI) by calculation of KS distance between data distributions for two parameters at the same MMC concentration. In order to perform KS distance measures on the different parameters of which had variant dimensions, parameter values were normalized (Pnorm) to a range from 0-1 using the function: […]", "key": {"[1]": {"conditions": "CHO-K1 cells, same MMC concentration, normalized parameters, FIG. 12"}}}
{"compound": "CO[C@@]12[C@H](COC(N)=O)C3=C(C(=O)C(C)=C(N)C3=O)N1C[C@@H]1N[C@@H]12", "note": "[MMC, Mitomycin C]", "values": [{"measurement": "Nuclear size, shape and morphology in representative HCS images", "setting": "CHO-K1 cells, 0, 0.16 and 2.5 μM MMC, 48 hours, HOECHST 33342 nuclear stain, FIG. 6", "result": "Changes in nuclear size, shape and morphology are clearly visible"}, {"measurement": "Intra-sample KS distance relative to untreated cells (nuclear area, length, perimeter, WMOI)", "setting": "CHO-K1 cells, 0.01 μM-10 μM MMC, FIG. 11", "result": "clear dose-dependent increase in KS distances for all four measured parameters"}, {"measurement": "Micronuclei formation (higher magnification view)", "setting": "CHO-K1 cells, 0.16 μM MMC, FIG. 6 image B inset", "result": "nuclei with associated micronuclei arising from clastogenic DNA damage"}, {"measurement": "Inter-sample KS distance Area and perimeter (A-W)", "setting": "[1]", "result": "low KS inter-sample distance at low and high MMC concentrations with an increase in KS distance at intermediate concentrations"}, {"measurement": "Inter-sample KS distance Area-Length (A-L)", "setting": "[1]", "result": "constant low KS distance across the entire MMC concentration range"}, {"measurement": "Inter-sample KS distance Length-WMOI (L-W)", "setting": "[1]", "result": "constant high KS distance over most of the MMC concentration range"}, {"measurement": "Inter-sample KS distance Perimeter-WMOI (P-W)", "setting": "[1]", "result": "decreases with MMC concentration"}]}
